Experimental data published in PMC12057046, “Elucidation of short linear motif-based interactions of the MIT and rhodanese domains of the ubiquitin-specific protease 8” (Biology Direct, 2025).
Each block holds one substance with its values, some of them ahead of it.

Key:
USP8 Rhod domain = target: T1, USP8 Rhod domain (Homo sapiens, UniProt P40818); experiment: Peptide-phage display-based deep mutational scanning (DMS), USP8 Rhod domain; format: binding; conditions: for enrichment_relative_to_wt at position 15 (wt L) / proportion of amino acid at position 15 (wt L) / enrichment_relative_to_wt at position 10 (wt S) / proportion of amino acid at position 10 (wt S): PSSM, library USP8_DMS, days 2,3; for hit_pair_ratio: bait USP8_Rhodanese__P40818_174_317
T1 construct: USP8 Rhod (174–317) (UniProt: P40818); GST (cleaved yes); made in house; host or cells: Escherichia coli BL21-Gold (DE3)
T1 sequence (P40818 174-317): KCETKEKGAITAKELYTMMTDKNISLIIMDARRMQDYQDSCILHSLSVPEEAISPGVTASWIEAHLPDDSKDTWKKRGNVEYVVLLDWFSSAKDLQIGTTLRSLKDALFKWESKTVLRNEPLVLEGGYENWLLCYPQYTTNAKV

USP8 MIT domain = experiment: Peptide-phage display-based deep mutational scanning (DMS), USP8 MIT domain; format: binding, human; conditions: bait USP8_MIT__P40818_1_142; EFCAB12 (Q6NXP0) 2-17; pair of mutant with wild-type wt_00016 (MDDDYEAYHSLFLSLL); sheet S3.B_ProP-PD_pairs
Protocol: The residues of these 16 amino acid-long wild-type peptides were substituted to all natural amino acid residues, except cysteine, in all positions (Supplementary Table S2A). The designed peptide sequences were reverse-translated to oligonucleotides optimized to the codon usage of E. coli. The required flanking regions (5´[…] and 3´[…]) were added for library construction. The library was generated as previously described.
Four rounds of phage selections were carried out using the second generation human disorderome library or the constructed deep mutational scanning library. At least three individual replicates were used for each bait protein. 10 µg of GST-tagged proteins or GST control (diluted in PBS from the stock of proteins kept in the purification elution buffer) were immobilized in 100 µL PBS on a 96-well MaxiSorp (Nunc) plate overnight at 4 °C. The plates were incubated with blocking buffer (with 0.5% BSA in PBS) for 1 h at 4 °C followed by washing with 0.05% Tween 20 in PBS four times. The naïve phage library (10^11 CFU) was diluted in 1/5th volume PEG/NaCl (20% PEG-8000, 0.4 M NaCl) and 1X PBS, incubated on ice for 10 min and centrifuged at 10,000 [drawing 3] g for 10 min. The pellet was resuspended in the volume of PBS (100 µL/ well). The GST-coated control plate was incubated with 100 µL library per well in PBS for 1 h at 4 °C to remove non-specific binders. The supernatant was transferred to the target wells and incubated for 2 h at 4 °C. The wells were washed five times with 0.05% Tween 20 in PBS and the bound phages were eluted with 100 µL per well log-phase E. coli OmniMAX by incubating at 37° C while shaking. After 30 min, M13KO7 helper phages were added and incubated for an additional 45 min. The bacterial cultures were transferred to 1 mL 2YT supplemented with 100 µg/mL carbenicillin, 30 µg/mL kanamycin and 0.3 mM IPTG and grew overnight at 37 °C while shaking. The following day the cultures were centrifuged for 10 min at 2,000 [drawing 4] g, 4 °C. 1/10th volume of 10 [drawing 5] PBS was added to adjust the pH and heated at 65 °C for 10 min. The phage pools from each round were used as in-phages for the next round of selections.
The samples were prepared for NGS as previously described. Peptide-coding regions of the enriched phage pools were amplified and barcoded using Phusion High-Fidelity PCR Master Mix (Thermo Fisher) for 22 cycles and confirmed by 2% agarose gel electrophoresis. The PCR products were normalized with 25 µL Mag-bind Total Pure NGS beads (Omega Biotek) and 10 µL of each eluted sample (Qiagen Elution Buffer) was pooled and cleaned-up with a PCR purification kit (Qiagen). The PCR product was confirmed by 2% agarose electrophoresis and the band was extracted with QIAquick Gel extraction Kit (Qiagen) and eluted with 30 µL TE buffer. The dsDNA was quantified using QuantiT PicoGreen dsDNA Assay Kit (Thermo Fisher) and sent for NGS (Illumina MiSeq v3, 1 × 150 bp read setup, 20% PhiX, NGI SciLifeLab facility, Sweden). The NGS data were demultiplexed, adapter regions were trimmed and sequences with an average quality of at least 20 were translated to peptide sequences. The NGS data were analysed using custom Python scripts. The total read NGS counts for each selection experiment of each peptide sequence were compiled and annotated in PepTools (https://slim.icr.ac.uk/tools/peptools/). Since ProP-PD is in essence a competition assay, the possibility of the input phage library influencing the selection outcome was explored. For this, the Pearson correlation coefficient, p-value and coefficient of determination were calculated for all peptide NGS count fractions in the library coverage vs. in the selections results (Supplementary Fig. S7; Supplementary Table S2B; Supplementary Table S3B; Supplementary Table S7B). Pearson correlation coefficient and p-value were calculated using Python’s SciPy library. […]

[1] = wild type/mutant pair, vs hit_library_peptide_wt GLALWEAKMKQLAERA, negative where mutant fraction exceeds wild type, ProP-PD pairs (sheet S7.B)
[2] = ProP-PD pairs, wild-type/mutant pair, wild type KIAA1614 569-584 GMERVLGGLSSPLRLL (wt_00013)
[3] = wild-type/mutant pair ratio of averaged fractions, negative values where mutant fraction is higher

Substance: KIAA1614_Q5VZ46_569_584 L15I (MERVLGGLSSPLRLIP; UniProt Q5VZ46 569-584, looked up, variant L15I)
enrichment_relative_to_wt at position 15 (wt L) (USP8 Rhod domain): -277
proportion of amino acid at position 15 (wt L) (USP8 Rhod domain): 0.00349

Substance: KIAA1614_Q5VZ46_569_584 L15V (MERVLGGLSSPLRLVP; UniProt Q5VZ46 569-584, looked up, variant L15V)
enrichment_relative_to_wt at position 15 (wt L) (USP8 Rhod domain): -151
proportion of amino acid at position 15 (wt L) (USP8 Rhod domain): 0.00642

Substance: KIAA1614_Q5VZ46_569_584 S10E (MERVLGGLSEPLRLLP; UniProt Q5VZ46 569-584, looked up, variant S10E)
enrichment_relative_to_wt at position 10 (wt S) (USP8 Rhod domain): -77
proportion of amino acid at position 10 (wt S) (USP8 Rhod domain): 0.00734

Substance: KIAA1614_Q5VZ46_569_584 S10H (MERVLGGLSHPLRLLP; UniProt Q5VZ46 569-584, looked up, variant S10H)
enrichment_relative_to_wt at position 10 (wt S) (USP8 Rhod domain): -1.37
proportion of amino acid at position 10 (wt S) (USP8 Rhod domain): 0.41

Substance: KIAA1614_Q5VZ46_569_584 S10V (MERVLGGLSVPLRLLP; peptide 569-584; UniProt Q5VZ46 569-584, looked up, variant S10V)
enrichment_relative_to_wt at position 10 (wt S) (USP8 Rhod domain): -328
proportion of amino acid at position 10 (wt S) (USP8 Rhod domain): 0.00172

Substance: KLALWEAKMKQLAERA
hit_pair_ratio (USP8 Rhod domain; [1]): 238.03

Substance: KMERVLGGLSSPLRLL
hit_pair_ratio (USP8 Rhod domain; [2]): 10.10

Substance: LDDDYEAYHSLFLSLL [mut_04329]
hit_pair_ratio (USP8 MIT domain): 1.88

Substance: NLALWEAKMKQLAERA
hit_pair_ratio (USP8 Rhod domain; [1]): 107.46

Substance: NMERVLGGLSSPLRLL
hit_pair_ratio (USP8 Rhod domain; [2]): 1.70

Substance: PMERVLGGLSSPLRLL
hit_pair_ratio (USP8 Rhod domain; [3]): 1.96

Substance: RLALWEAKMKQLAERA
hit_pair_ratio (USP8 Rhod domain; [1]): 1107.01

Substance: RMERVLGGLSSPLRLL
hit_pair_ratio (USP8 Rhod domain; [2]): 3.82

Substance: SMERVLGGLSSPLRLL
hit_pair_ratio (USP8 Rhod domain; [3]): -2.25

Substance: TMERVLGGLSSPLRLL
hit_pair_ratio (USP8 Rhod domain; [3]): -2.57

Substance: YMERVLGGLSSPLRLL
hit_pair_ratio (USP8 Rhod domain; [2]): 10.06

Now from value to substance:

enrichment_relative_to_wt at position 15 (wt L) (USP8 Rhod domain): -89
proportion of amino acid at position 15 (wt L) (USP8 Rhod domain): 0.0109
Substance: KIAA1614_Q5VZ46_569_584 L15N (MERVLGGLSSPLRLNP; peptide 569-584; UniProt Q5VZ46 569-584, looked up, variant L15N)

enrichment_relative_to_wt at position 10 (wt S) (USP8 Rhod domain): -231
proportion of amino acid at position 10 (wt S) (USP8 Rhod domain): 0.00245
Substance: KIAA1614_Q5VZ46_569_584 S10I (MERVLGGLSIPLRLLP; UniProt Q5VZ46 569-584, looked up, variant S10I)

hit_pair_ratio (USP8 Rhod domain; [2]): 64.39
Substance: LMERVLGGLSSPLRLL

hit_pair_ratio (USP8 Rhod domain; [2]): 6.27
Substance: MMERVLGGLSSPLRLL

hit_pair_ratio (USP8 Rhod domain; [1]): 553.50
Substance: QLALWEAKMKQLAERA

hit_pair_ratio (USP8 Rhod domain; [3]): -4.33
Substance: QMERVLGGLSSPLRLL

hit_pair_ratio (USP8 Rhod domain; [2]): 53.66
Substance: VMERVLGGLSSPLRLL

hit_pair_ratio (USP8 Rhod domain; [2]): 1.49
Substance: WMERVLGGLSSPLRLL
